{"source": "patent US11566222B2", "about": "“γδ T cell expansion procedure” (KING'S COLLEGE LONDON, priority 2014, dated 2023)", "key": {"Vγ9Vδ2 T-cells": {"test_system": "Vγ9Vδ2 T-cells", "assay": "Ex-vivo expansion of Vγ9Vδ2 T-cells from PBMC", "format": "cell-based, human", "description": "To enrich these cells, peripheral blood mononuclear cells (PBMC) were activated with ZA and cultured in AB serum-containing RPMI 1640 medium, supplemented with IL-2/IL-15. Specifically, PBMC isolated from normal (healthy) donors (n=21 separate donors) and from patients with EOC (n=13 separate donors) were cultured with ZA (1 μg/ml day 1 only), IL-2 (100 U/ml) and IL-15 (10 ng/ml). Cytokines and medium were added daily.\nIsolated PBMC cells were then reconstituted in GMP TexMACS Media (Miltenyi) at 3×10^6 cell/mL. To the reconstituted cells, 1 μg/mL Zoledronic Acid (Zometa, Novartis) was added as an activator, together with 100 U/mL IL-2 and 5 ng/mL TGF-β. The cells were incubated at 37° C. in air containing 5% carbon dioxide.\nOn day 3, cells were fed with 100 U/mL IL-2 and 5 ng/mL TGF-β. Thereafter, on days 4, 7, 9, 11, 13, 15, cells were counted by trypan exclusion using a hemocytometer. If the number of T-cells was less than 1×10^6 cells/mL, a further 100 U/mL IL-2 and 5 ng/mL TGF-β were added. If the number of T-cells was between 1×10^6 and 2×10^6 cells/mL, an equivalent volume of TexMACS medium was added together with 100 U/mL IL-2 and 5 ng/mL TGF-β. If the number of T-cells was greater than 2×10^6 […], double the volume of TexMACS media was added together with 100 U/mL IL-2 and 5 ng/mL TGF-β.\nAfter 15 days, the cells were analyzed by flow cytometry with a pan γδ antibody to confirm the enrichment of γδ T-cells in these cultures.\nThe methodology of Example 1 above was repeated using a different basic medium, specifically RPMI+human AB serum. In particular, PBMC (3×10^6 cells/ml) were cultured in RPMI+10% human AB serum containing zoledronic acid (1 μg/ml)+IL-2 (100 U/ml; method 1) or zoledronic acid (1 μg/ml)+IL-2 (100 U/ml)+TGF-β (5 ng/ml; method 2). The percentage of γδ T-cells present in each culture was evaluated on the day of initiation of the cultures (day 1) and after a further 14 days (day 15) and the results are shown in FIG. 9B."}, "[1]": {"test_system": "U937 tumor cells or KG-1 tumor cells", "assay": "Cytotoxicity assay (luciferase) with cytarabine-pulsed tumor cells, 1:1 effector:target", "format": "cell-based", "details": "sub-lethal doses, 24 h pulse before T-cells", "description": "Cytotoxicity assays were established in triplicate at a 1:1 effector:target ratio in 96 well plates containing either U937 tumor cells or KG-1 tumor cells. Where indicated, tumor cells were pulsed for 24 h with the indicated concentrations of cytarabine, prior to addition of γδ T-cells, produced either using the method of the invention (M2) or the method of the comparative example (M1) above. There were three donors for the M2 cells and two donors for the M1 cells. A control group received no cytarabine.\nResidual tumor cell viability was measured after overnight co-culture with Vγ9Vδ2 T-cells by luciferase assay."}}}
{"compound": "TGF-β", "values": [{"measurement": "cell expansion on addition of TGF-β", "setting": "Vγ9Vδ2 T-cells; RPMI + 10% human AB serum, ZA + IL-2, 5 ng/ml TGF-β, day 15", "value": "enhanced cell expansion"}, {"measurement": "yield of Vγ9Vδ2 T-cells on addition of TGF-β", "setting": "Vγ9Vδ2 T-cells; TexMACS medium, ZA + IL-2, 5 ng/mL TGF-β, 15 days", "value": "substantially enhanced yields"}]}
{"compound": "IL-15: cytokine supplement (10 ng/ml) in comparative expansion", "values": [{"measurement": "yield of cells on addition of IL-15", "setting": "Vγ9Vδ2 T-cells; RPMI 1640 with AB serum, ZA + IL-2, IL-15 10 ng/ml", "value": "no significant difference"}]}
{"compound": "Nc1ccn([C@@H]2O[C@H](CO)[C@@H](O)[C@@H]2O)c(=O)n1", "note": "[cytarabine]", "values": [{"measurement": "effect of cytarabine on anti-tumor activity of method 2 Vγ9Vδ2 T-cells", "setting": "[1]", "value": "potentiated the anti-tumor activity"}]}
